Test results: the supplement of paper PMC11061612

How the values were obtained:
Savolitinib = compound: C[C@@H](c1ccc2nccn2c1)n1nnc2ncc(-c3cnn(C)c3)nc21 [Savolitinib]; settings: max 1 µM
Outline: (§1)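 Plates with 1536 wells received cancer cell lines in 7.5 μl of DMEM/F12 or RPMI containing 10% FBS. After 24 hours at 37°C and 5% CO2, cells were dosed for 72 hours with final DMSO typically 0.2%, and viability was read by CellTiter-Glo 2.0 luminescence scaled between blank-well and DMSO-well means. The single-agent IC50 was taken from a logistic fit of the dose responses made with a non-linear mixed effects model, that logistic curve having two parameters.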

AZD2811 = compound: CCN(CCO)CCCOc1ccc2c(Nc3cc(CC(=O)Nc4cccc(F)c4)[nH]n3)ncnc2c1 [AZD2811]; settings: max 1 µM
Outline: as §1

SN-38 = compound: CCc1c2c(nc3ccc(O)cc13)-c1cc3c(c(=O)n1C2)COC(=O)[C@]3(O)CC [SN-38]; settings: max 0.3 µM
Outline: as §1

Carboplatin = compound: C1CC(C1)(C(=O)[O-])C(=O)[O-].N.N.[Pt+2] [Carboplatin]; settings: max 10 µM
Outline: as §1

Crizotinib = compound: C[C@@H](Oc1cc(-c2cnn(C3CCNCC3)c2)cnc1N)c1c(Cl)ccc(F)c1Cl [Crizotinib]; settings: max 10 µM
Outline: as §1

AZD1775 = compound: C=CCn1c(=O)c2cnc(Nc3ccc(N4CCN(C)CC4)cc3)nc2n1-c1cccc(C(C)(C)O)n1 [AZD1775]; settings: max 3 µM
Outline: as §1

Olaparib = compound: O=C(c1cc(Cc2n[nH]c(=O)c3ccccc23)ccc1F)N1CCN(C(=O)C2CC2)CC1 [Olaparib]; settings: max 10 µM
Outline: as §1

Doxorubicin = compound: COc1cccc2c1C(=O)c1c(O)c3c(c(O)c1C2=O)C[C@@](O)(C(=O)CO)C[C@@H]3O[C@H]1C[C@H](N)[C@H](O)[C@H](C)O1 [Doxorubicin]; settings: max 1 µM
Outline: as §1

Palbociclib = compound: CC(=O)c1c(C)c2cnc(Nc3ccc(N4CCNCC4)cn3)nc2n(C2CCCC2)c1=O [Palbociclib]; settings: max 10 µM
Outline: as §1

Gefitinib = compound: COc1cc2ncnc(Nc3ccc(F)c(Cl)c3)c2cc1OCCCN1CCOCC1 [Gefitinib]; settings: max 10 µM
Outline: as §1

Paclitaxel = compound: CC(=O)O[C@H]1C(=O)[C@@]2(C)[C@H]([C@H](OC(=O)c3ccccc3)[C@]3(O)C[C@H](OC(=O)[C@H](O)[C@@H](NC(=O)c4ccccc4)c4ccccc4)C(C)=C1C3(C)C)[C@]1(OC(C)=O)CO[C@@H]1C[C@@H]2O [Paclitaxel]; settings: max 3 µM
Outline: as §1

MK-2206 = compound: NC1(c2ccc(-c3nc4ccn5c(=O)[nH]nc5c4cc3-c3ccccc3)cc2)CCC1 [MK-2206]; settings: max 10 µM
Outline: as §1

AZD4320 = compound: CN(CC[C@H](CSC1=CC=CC=C1)NC2=C(C=C(C=C2)S(=O)(=O)NC(=O)C3=CC=C(C=C3)N4CCC(CC4)[C@H](C5=CC=CC=C5C6=CC=C(C=C6)Cl)O)S(=O)(=O)C(F)(F)F)CCO [AZD4320]; settings: max 1 µM
Outline: as §1

Alisertib = compound: COc1cc(Nc2ncc3c(n2)-c2ccc(Cl)cc2C(c2c(F)cccc2OC)=NC3)ccc1C(=O)O [Alisertib]; settings: max 10 µM
Outline: as §1

Gemcitabine = compound: Nc1ccn([C@@H]2O[C@H](CO)[C@@H](O)C2(F)F)c(=O)n1 [Gemcitabine]; settings: max 0.3 µM
Outline: as §1

SRA737 = compound: N#Cc1cnc(Nc2cc(NC[C@H]3CNCCO3)c(C(F)(F)F)cn2)cn1 [SRA737]; settings: max 10 µM
Outline: as §1

AZD8186 = compound: C[C@@H](Nc1cc(F)cc(F)c1)c1cc(C(=O)N(C)C)cc2c(=O)cc(N3CCOCC3)oc12 [AZD8186]; settings: max 10 µM
Outline: as §1

AZD0156 = compound: CN(C)CCCOc1ccc(-c2ccc3ncc4c(c3c2)n(C2CCOCC2)c(=O)n4C)cn1 [AZD0156]; settings: max 3 µM
Outline: as §1

Trametinib = compound: CC(=O)Nc1cccc(-n2c(=O)n(C3CC3)c(=O)c3c(Nc4ccc(I)cc4F)n(C)c(=O)c(C)c32)c1 [Trametinib]; settings: max 1 µM
Outline: as §1

SG3199 = compound: CC1=CN2[C@@H](C1)C=NC3=CC(=C(C=C3C2=O)OC)OCCCCCOC4=C(C=C5C(=C4)N=C[C@@H]6CC(=CN6C5=O)C)OC [SG3199]; settings: max 0.001 µM
Outline: as §1

AZD5991 = compound: Cc1c2c(nn1C)CSCc1cc(n(C)n1)CSc1cc(c3ccccc3c1)OCCCc1c(C(=O)O)n(C)c3c-2c(Cl)ccc13 [AZD5991]; settings: max 1 µM
Outline: as §1

Prexasertib = compound: COc1cccc(OCCCN)c1-c1cc(Nc2cnc(C#N)cn2)n[nH]1 [Prexasertib]; settings: max 1 µM
Outline: as §1

AZD1390 = compound: CC(C)n1c(=O)n(C)c2cnc3cc(F)c(-c4ccc(OCCCN5CCCCC5)nc4)cc3c21 [AZD1390]; settings: max 0.3 µM
Outline: as §1

Dasatinib = compound: CC1=C(C(=CC=C1)Cl)NC(=O)C2=CN=C(S2)NC3=CC(=NC(=N3)C)N4CCN(CC4)CCO [Dasatinib]; settings: max 2 µM
Outline: as §1

[1] = compound: O=C(Nc1ccc2[nH]nc(-c3ccncc3)c2c1)[C@@H]1CCN(CC(=O)N2CCN(c3ccc(-c4ncccn4)cc3)CC2)C1; settings: max 5 µM
Outline: as §1

Selumetinib = compound: Cn1cnc2c(F)c(Nc3ccc(Br)cc3Cl)c(C(=O)NOCCO)cc21 [Selumetinib]; settings: max 10 µM
Outline: as §1

Venetoclax = compound: CC1(C)CCC(CN2CCN(c3ccc(C(=O)NS(=O)(=O)c4ccc(NCC5CCOCC5)c([N+](=O)[O-])c4)c(Oc4cnc5[nH]ccc5c4)c3)CC2)=C(c2ccc(Cl)cc2)C1 [Venetoclax]; settings: max 1 µM
Outline: as §1

AZD5153 = compound: COc1nnc2ccc(N3CCC(c4ccc(OCCN5CCN(C)C(=O)[C@H]5C)cc4)CC3)nn12 [AZD5153]; settings: max 1 µM
Outline: as §1

5-Fluorouracil = compound: O=c1[nH]cc(F)c(=O)[nH]1 [5-Fluorouracil]; settings: max 20 µM
Outline: as §1

AZD7648 = compound: Cc1cc2ncnn2cc1Nc1ncc2c(n1)n(C1CCOCC1)c(=O)n2C [AZD7648]; settings: max 10 µM
Outline: as §1

Taselisib = compound: Cc1nc(-c2cn3c(n2)-c2ccc(-c4cnn(C(C)(C)C(N)=O)c4)cc2OCC3)n(C(C)C)n1 [Taselisib]; settings: max 10 µM
Outline: as §1

Etoposide = compound: COc1cc([C@@H]2c3cc4c(cc3[C@@H](O[C@@H]3O[C@@H]5CO[C@@H](C)O[C@H]5[C@H](O)[C@H]3O)[C@H]3COC(=O)[C@H]23)OCO4)cc(OC)c1O [Etoposide]; settings: max 10 µM
Outline: as §1

Lapatinib = compound: CS(=O)(=O)CCNCc1ccc(-c2ccc3ncnc(Nc4ccc(OCc5cccc(F)c5)c(Cl)c4)c3c2)o1 [Lapatinib]; settings: max 10 µM
Outline: as §1

AZD6738 = compound: C[C@@H]1COCCN1C2=NC(=NC(=C2)C3(CC3)[S@](=N)(=O)C)C4=C5C=CNC5=NC=C4 [AZD6738]; settings: max 10 µM
Outline: as §1

AZD5363 = compound: C1CN(CCC1(C(=O)N[C@@H](CCO)C2=CC=C(C=C2)Cl)N)C3=NC=NC4=C3C=CN4 [AZD5363]; settings: max 10 µM
Outline: as §1

Cell Line	IC50, cell viability 72 h (Savolitinib) [µM]	IC50, cell viability 72 h (AZD2811) [µM]	IC50, cell viability 72 h (SN-38) [µM]	IC50, cell viability 72 h (Carboplatin) [µM]	IC50, cell viability 72 h (Crizotinib) [µM]	IC50, cell viability 72 h (AZD1775) [µM]	IC50, cell viability 72 h (Olaparib) [µM]	IC50, cell viability 72 h (Doxorubicin) [µM]	IC50, cell viability 72 h (Palbociclib) [µM]	IC50, cell viability 72 h (Gefitinib) [µM]	IC50, cell viability 72 h (Paclitaxel) [µM]	IC50, cell viability 72 h (MK-2206) [µM]	IC50, cell viability 72 h (AZD4320) [µM]	IC50, cell viability 72 h (Alisertib) [µM]	IC50, cell viability 72 h (Gemcitabine) [µM]	IC50, cell viability 72 h (SRA737) [µM]	IC50, cell viability 72 h (AZD8186) [µM]	IC50, cell viability 72 h (AZD0156) [µM]	IC50, cell viability 72 h (Trametinib) [µM]	IC50, cell viability 72 h (SG3199) [µM]	IC50, cell viability 72 h (AZD5991) [µM]	IC50, cell viability 72 h (Prexasertib) [µM]	IC50, cell viability 72 h (AZD1390) [µM]	IC50, cell viability 72 h (Dasatinib) [µM]	IC50, cell viability 72 h [1] [µM]	IC50, cell viability 72 h (Selumetinib) [µM]	IC50, cell viability 72 h (Venetoclax) [µM]	IC50, cell viability 72 h (AZD5153) [µM]	IC50, cell viability 72 h (5-Fluorouracil) [µM]	IC50, cell viability 72 h (AZD7648) [µM]	IC50, cell viability 72 h (Taselisib) [µM]	IC50, cell viability 72 h (Etoposide) [µM]	IC50, cell viability 72 h (Lapatinib) [µM]	IC50, cell viability 72 h (AZD6738) [µM]	IC50, cell viability 72 h (AZD5363) [µM]
PANC-02-03 (Pancreatic Carcinoma)	> 1	> 1	0.137	> 10	> 10	1.79	> 10	> 1	> 10	> 10	1.67	> 10	> 1	> 10	> 0.3	> 10	> 10	> 3	0.259	> 0.001	> 1	0.405	> 0.3	> 2	2.93	> 10	> 1	0.494	> 20	> 10	> 10	> 10	> 10	> 10	> 10
PC-14 (Lung Adenocarcinoma)	> 1	> 1	0.104	> 10	6.02	0.407	> 10	> 1	> 10	0.127	0.00894	> 10	> 1	2.96	0.0562	3.33	> 10	> 3	0.453	> 0.001	> 1	0.0254	> 0.3	0.129	> 5	> 10	> 1	> 1	> 20	> 10	4.7	> 10	1.7	2.68	> 10
